Data reported in the kinase profiling compilation of Christmann-Franck et al. (2016).

Columns and labels:
Experiment in all cases: KINOMEscan competition binding
Details in all cases: compound 0.5 µM
ACVR1 (human) = ACVR1 (human) (UniProt Q04771)
BMX (human) = BMX (human) (UniProt P51813)
CAMK4 (human) = CAMK4 (human) (UniProt Q16566)
CDK14 (human) = CDK14 (human) (UniProt O94921)
CHEK1 (human) = CHEK1 (human) (UniProt O14757)
CLK3 (human) = CLK3 (human) (UniProt P49761)
CPK1 (P.falciparum) = system: CPK1 (P.falciparum)
CSNK1D (human) = CSNK1D (human) (UniProt P48730)
DDR2 (human) = DDR2 (human) (UniProt Q16832)
DSTYK (human) = DSTYK (human) (UniProt Q6XUX3)
Sequence of DSTYK (human) (Q6XUX3 whole entry, looked up): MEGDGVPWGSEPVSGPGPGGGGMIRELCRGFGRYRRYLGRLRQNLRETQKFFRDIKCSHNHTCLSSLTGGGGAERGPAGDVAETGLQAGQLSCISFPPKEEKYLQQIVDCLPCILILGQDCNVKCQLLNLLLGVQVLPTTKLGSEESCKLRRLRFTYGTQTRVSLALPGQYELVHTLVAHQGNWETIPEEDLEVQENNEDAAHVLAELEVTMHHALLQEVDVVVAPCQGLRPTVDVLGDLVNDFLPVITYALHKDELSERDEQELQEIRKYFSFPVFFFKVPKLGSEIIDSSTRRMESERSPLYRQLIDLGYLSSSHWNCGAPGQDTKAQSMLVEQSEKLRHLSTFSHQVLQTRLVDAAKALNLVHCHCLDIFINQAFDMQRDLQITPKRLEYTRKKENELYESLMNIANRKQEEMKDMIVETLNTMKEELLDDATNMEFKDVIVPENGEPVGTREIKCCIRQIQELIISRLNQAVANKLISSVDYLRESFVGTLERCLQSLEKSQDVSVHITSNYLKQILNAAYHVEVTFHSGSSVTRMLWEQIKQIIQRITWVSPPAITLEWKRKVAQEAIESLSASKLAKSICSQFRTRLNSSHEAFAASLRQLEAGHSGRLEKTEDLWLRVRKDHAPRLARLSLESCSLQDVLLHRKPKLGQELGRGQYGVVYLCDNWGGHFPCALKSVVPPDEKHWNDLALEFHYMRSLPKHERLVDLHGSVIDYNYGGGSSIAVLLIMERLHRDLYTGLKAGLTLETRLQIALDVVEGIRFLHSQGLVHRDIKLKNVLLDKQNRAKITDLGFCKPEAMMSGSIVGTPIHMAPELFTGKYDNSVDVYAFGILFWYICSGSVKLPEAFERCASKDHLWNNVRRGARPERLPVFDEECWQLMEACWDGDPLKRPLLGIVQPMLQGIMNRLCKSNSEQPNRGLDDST

EIF2AK1 (human) = EIF2AK1 (human) (UniProt Q9BQI3)
Sequence of EIF2AK1 (human) (Q9BQI3 whole entry, looked up): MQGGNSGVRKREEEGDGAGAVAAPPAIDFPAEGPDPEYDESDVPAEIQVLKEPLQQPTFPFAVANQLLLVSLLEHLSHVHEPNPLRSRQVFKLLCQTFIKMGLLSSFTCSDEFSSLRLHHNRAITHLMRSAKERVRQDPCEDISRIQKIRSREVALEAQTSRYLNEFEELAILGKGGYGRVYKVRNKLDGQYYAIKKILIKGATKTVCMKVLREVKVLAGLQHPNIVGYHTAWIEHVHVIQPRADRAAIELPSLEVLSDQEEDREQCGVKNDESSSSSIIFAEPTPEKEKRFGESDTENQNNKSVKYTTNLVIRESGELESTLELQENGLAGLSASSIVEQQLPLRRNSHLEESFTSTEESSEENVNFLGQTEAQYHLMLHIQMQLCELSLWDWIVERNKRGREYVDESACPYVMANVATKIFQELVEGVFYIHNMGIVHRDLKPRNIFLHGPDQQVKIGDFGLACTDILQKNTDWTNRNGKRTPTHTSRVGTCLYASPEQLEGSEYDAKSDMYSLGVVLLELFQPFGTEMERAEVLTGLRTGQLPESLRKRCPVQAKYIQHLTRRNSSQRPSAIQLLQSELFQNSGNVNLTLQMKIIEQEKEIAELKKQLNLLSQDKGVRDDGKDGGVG

EPHA2 (human) = EPHA2 (human) (UniProt P29317)
Sequence of EPHA2 (human) (P29317 whole entry, looked up): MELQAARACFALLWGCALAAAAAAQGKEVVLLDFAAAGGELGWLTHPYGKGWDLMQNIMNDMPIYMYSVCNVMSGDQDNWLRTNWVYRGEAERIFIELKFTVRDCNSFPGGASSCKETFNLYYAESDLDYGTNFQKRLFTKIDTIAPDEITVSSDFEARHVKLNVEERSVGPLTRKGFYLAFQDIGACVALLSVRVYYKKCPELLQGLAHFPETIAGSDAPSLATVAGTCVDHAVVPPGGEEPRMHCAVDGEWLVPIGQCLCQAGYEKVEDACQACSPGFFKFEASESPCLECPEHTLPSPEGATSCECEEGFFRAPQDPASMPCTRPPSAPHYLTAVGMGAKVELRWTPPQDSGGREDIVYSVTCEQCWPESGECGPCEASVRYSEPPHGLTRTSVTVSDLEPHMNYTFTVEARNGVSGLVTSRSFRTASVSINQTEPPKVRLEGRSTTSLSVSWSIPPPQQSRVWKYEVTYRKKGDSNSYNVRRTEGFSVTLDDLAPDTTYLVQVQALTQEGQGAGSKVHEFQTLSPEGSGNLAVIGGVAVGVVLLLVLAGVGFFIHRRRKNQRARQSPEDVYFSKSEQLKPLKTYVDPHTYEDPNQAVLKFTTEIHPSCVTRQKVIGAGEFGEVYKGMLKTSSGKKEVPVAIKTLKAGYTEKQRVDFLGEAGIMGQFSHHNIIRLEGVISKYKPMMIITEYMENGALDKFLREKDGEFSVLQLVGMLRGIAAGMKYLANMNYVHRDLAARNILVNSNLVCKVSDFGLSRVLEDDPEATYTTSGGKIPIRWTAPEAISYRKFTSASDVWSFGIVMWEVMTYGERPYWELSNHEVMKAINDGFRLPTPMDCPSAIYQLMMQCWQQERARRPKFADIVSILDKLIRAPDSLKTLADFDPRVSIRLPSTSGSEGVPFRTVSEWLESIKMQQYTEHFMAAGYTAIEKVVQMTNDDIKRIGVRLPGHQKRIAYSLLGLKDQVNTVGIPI

EPHA5 (human) = EPHA5 (human) (UniProt P54756)
Sequence of EPHA5 (human) (P54756 whole entry, looked up): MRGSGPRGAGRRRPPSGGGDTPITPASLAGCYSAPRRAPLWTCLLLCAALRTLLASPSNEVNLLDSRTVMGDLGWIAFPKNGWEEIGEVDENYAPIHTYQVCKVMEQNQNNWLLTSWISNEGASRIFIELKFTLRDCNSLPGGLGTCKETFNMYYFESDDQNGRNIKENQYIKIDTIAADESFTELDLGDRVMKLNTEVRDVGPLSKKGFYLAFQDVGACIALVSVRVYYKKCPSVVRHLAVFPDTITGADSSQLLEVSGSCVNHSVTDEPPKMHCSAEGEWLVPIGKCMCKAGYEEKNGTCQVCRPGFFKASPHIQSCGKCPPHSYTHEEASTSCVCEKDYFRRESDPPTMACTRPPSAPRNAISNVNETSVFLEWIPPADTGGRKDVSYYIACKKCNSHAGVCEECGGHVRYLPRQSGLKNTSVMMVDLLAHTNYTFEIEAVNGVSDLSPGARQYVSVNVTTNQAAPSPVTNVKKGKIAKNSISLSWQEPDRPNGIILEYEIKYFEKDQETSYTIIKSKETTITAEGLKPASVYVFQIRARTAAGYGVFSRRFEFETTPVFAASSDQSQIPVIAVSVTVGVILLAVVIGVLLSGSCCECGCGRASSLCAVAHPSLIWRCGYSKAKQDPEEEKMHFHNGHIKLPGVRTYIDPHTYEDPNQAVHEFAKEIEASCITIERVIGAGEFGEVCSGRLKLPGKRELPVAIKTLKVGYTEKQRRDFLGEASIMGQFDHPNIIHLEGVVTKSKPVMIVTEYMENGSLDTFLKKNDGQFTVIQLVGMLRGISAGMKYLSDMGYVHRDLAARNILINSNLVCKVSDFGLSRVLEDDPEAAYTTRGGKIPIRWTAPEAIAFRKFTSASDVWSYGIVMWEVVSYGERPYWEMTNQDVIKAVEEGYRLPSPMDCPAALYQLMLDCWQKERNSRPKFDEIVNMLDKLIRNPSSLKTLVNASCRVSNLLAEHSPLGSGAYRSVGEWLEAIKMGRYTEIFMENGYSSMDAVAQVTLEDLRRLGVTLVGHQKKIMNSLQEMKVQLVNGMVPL

FER (human) = FER (human) (UniProt P16591)
FGFR4 (human) = FGFR4 (human) (UniProt P22455)
FLT1 (human) = FLT1 (human) (UniProt P17948)
[1] = system: FLT3 (human), P36888 [K663Q]
GAK (human) = GAK (human) (UniProt O14976)
[2] = system: KIT (human), P10721 [A829P]
LIMK2 (human) = LIMK2 (human) (UniProt P53671)
MAP3K4 (human) = MAP3K4 (human) (UniProt Q9Y6R4)
MAP4K1 (human) = MAP4K1 (human) (UniProt Q92918)
Sequence of MAP4K1 (human) (Q92918 whole entry, looked up): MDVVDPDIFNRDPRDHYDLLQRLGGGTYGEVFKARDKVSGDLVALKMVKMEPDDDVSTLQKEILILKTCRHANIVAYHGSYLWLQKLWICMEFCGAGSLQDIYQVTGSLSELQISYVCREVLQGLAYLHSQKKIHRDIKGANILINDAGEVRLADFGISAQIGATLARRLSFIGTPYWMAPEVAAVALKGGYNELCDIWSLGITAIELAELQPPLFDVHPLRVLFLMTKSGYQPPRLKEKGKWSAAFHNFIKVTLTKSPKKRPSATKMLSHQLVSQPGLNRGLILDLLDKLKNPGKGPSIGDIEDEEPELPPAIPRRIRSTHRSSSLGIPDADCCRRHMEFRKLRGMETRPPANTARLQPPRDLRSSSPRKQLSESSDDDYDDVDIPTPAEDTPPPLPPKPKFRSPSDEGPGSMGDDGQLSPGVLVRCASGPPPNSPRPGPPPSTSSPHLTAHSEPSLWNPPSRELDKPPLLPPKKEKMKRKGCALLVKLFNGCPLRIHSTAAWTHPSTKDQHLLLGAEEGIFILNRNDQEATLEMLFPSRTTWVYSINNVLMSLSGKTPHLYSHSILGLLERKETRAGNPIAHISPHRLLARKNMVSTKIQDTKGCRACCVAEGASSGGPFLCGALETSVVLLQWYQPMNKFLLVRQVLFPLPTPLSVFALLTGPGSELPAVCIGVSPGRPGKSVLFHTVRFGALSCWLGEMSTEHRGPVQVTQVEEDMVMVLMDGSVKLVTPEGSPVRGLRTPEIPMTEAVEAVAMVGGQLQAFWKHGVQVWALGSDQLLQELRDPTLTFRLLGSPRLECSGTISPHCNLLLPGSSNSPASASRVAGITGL

MAP4K4 (human) = MAP4K4 (human) (UniProt O95819)
MAPK14 (human) = MAPK14 (human) (UniProt Q16539)
MST4 (human) = MST4 (human) (UniProt Q9P289)
MYO3A (human) = MYO3A (human) (UniProt Q8NEV4)
NEK3 (human) = NEK3 (human) (UniProt P51956)
NEK6 (human) = NEK6 (human) (UniProt Q9HC98)
NLK (human) = NLK (human) (UniProt Q9UBE8)
PAK1 (human) = PAK1 (human) (UniProt Q13153)
PAK4 (human) = PAK4 (human) (UniProt O96013)
PIK3C2B (human) = PIK3C2B (human) (UniProt O00750)
PIK3C2G (human) = PIK3C2G (human) (UniProt O75747)
[3] = system: PIK3CA (human), P42336 [E545K]
[4] = system: PIK3CA (human), P42336 [M1043I]
PIK3CB (human) = PIK3CB (human) (UniProt P42338)
PIK3CG (human) = PIK3CG (human) (UniProt P48736)
PIM2 (human) = PIM2 (human) (UniProt Q9P1W9)
PRKACA (human) = PRKACA (human) (UniProt P17612)
PTK2 (human) = PTK2 (human) (UniProt Q05397)
RIOK1 (human) = RIOK1 (human) (UniProt Q9BRS2)
RPS6KA6 KD2 (human) = RPS6KA6 KD2 (human) (UniProt Q9UK32)

Sequence of CHEK1 (human) (O14757 whole entry, looked up): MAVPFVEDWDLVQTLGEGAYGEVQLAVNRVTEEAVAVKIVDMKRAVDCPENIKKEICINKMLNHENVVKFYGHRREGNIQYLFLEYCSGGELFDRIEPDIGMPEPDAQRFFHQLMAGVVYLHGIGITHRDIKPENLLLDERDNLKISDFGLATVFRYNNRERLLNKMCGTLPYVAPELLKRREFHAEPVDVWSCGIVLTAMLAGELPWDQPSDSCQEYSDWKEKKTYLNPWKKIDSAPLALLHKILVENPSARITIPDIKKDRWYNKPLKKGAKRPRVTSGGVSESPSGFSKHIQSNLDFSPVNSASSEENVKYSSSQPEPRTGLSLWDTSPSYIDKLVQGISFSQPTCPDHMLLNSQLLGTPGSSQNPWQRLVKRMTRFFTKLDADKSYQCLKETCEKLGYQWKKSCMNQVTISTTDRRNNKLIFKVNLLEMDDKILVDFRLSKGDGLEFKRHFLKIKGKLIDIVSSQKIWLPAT

`Cn1c2ccccc2c2c3c(c4c5ccccc5n(CCC#N)c4c21)CNC3=O` gave a kinase still bound, per cent of control (ACVR1 (human)) of 21%, a kinase still bound, per cent of control (BMX (human)) of 66% and a kinase still bound, per cent of control (CAMK4 (human)) of 100%. For the same compound, the kinase still bound, per cent of control (CDK14 (human)) was 100%, the kinase still bound, per cent of control (CHEK1 (human)) was 0.2% and the kinase still bound, per cent of control (CLK3 (human)) was 94%. For the same compound, the kinase still bound, per cent of control (CPK1 (P.falciparum)) was 35%, the kinase still bound, per cent of control (CSNK1D (human)) was 81% and the kinase still bound, per cent of control (DDR2 (human)) was 100%. For the same compound, the kinase still bound, per cent of control (DSTYK (human)) was 2%, the kinase still bound, per cent of control (EIF2AK1 (human)) was 100% and the kinase still bound, per cent of control (EPHA2 (human)) was 87%. For the same compound, the kinase still bound, per cent of control (EPHA5 (human)) was 96%, the kinase still bound, per cent of control (FER (human)) was 3.2% and the kinase still bound, per cent of control (FGFR4 (human)) was 100%. For the same compound, the kinase still bound, per cent of control (FLT1 (human)) was 95%, the kinase still bound, per cent of control [1] was 0.95% and the kinase still bound, per cent of control (GAK (human)) was 2%. The kinase still bound, per cent of control [2] was 54%, the kinase still bound, per cent of control (LIMK2 (human)) was 100% and the kinase still bound, per cent of control (MAP3K4 (human)) was 99%. For the same compound, the kinase still bound, per cent of control (MAP4K1 (human)) was 33%, the kinase still bound, per cent of control (MAP4K4 (human)) was 2.2% and the kinase still bound, per cent of control (MAPK14 (human)) was 95%. For the same compound, the kinase still bound, per cent of control (MST4 (human)) was 100%, the kinase still bound, per cent of control (MYO3A (human)) was 35% and the kinase still bound, per cent of control (NEK3 (human)) was 100%. For the same compound, the kinase still bound, per cent of control (NEK6 (human)) was 100%, the kinase still bound, per cent of control (NLK (human)) was 100% and the kinase still bound, per cent of control (PAK1 (human)) was 84%. It also gave a kinase still bound, per cent of control (PAK4 (human)) of 4%, a kinase still bound, per cent of control (PIK3C2B (human)) of 100% and a kinase still bound, per cent of control (PIK3C2G (human)) of 70%. For the same compound, the kinase still bound, per cent of control [3] was 100%, the kinase still bound, per cent of control [4] was 93% and the kinase still bound, per cent of control (PIK3CB (human)) was 88%. The kinase still bound, per cent of control (PIK3CG (human)) was 3.1%, the kinase still bound, per cent of control (PIM2 (human)) was 100% and the kinase still bound, per cent of control (PRKACA (human)) was 100%. For the same compound, the kinase still bound, per cent of control (PTK2 (human)) was 73%, the kinase still bound, per cent of control (RIOK1 (human)) was 0.6% and the kinase still bound, per cent of control (RPS6KA6 KD2 (human)) was 100%.
